Results: PMC7367283, “A PIP2 substitute mediates voltage sensor-pore coupling in KCNQ activation” (Communications Biology, 2020)
Where “and” joins values, the source holds several entries; their conditions need not be identical. Identical values can stand only once.

Columns and labels:
Assay in all cases: Two-electrode voltage clamp of mutant KCNQ1 in Xenopus oocytes
Type in all cases: cell-based
KCNQ1 R249A = KCNQ1 R249A (Homo sapiens, UniProt P51787, R249A)
From the text: (§1) In a previous study, mutation of residues in the predicted PIP2-binding site reduced KCNQ1 currents. CP1 modifies voltage-dependent activation of KCNQ1 channels by shifting the voltage dependence of channel opening, measured as the voltage dependence of the conductance (G–V) relationship, to more negative voltages (Fig. 1c) among other characteristics (see below). We made mutations to the residues around the CP1-interacting pocket as indicated by molecular docking (Fig. 1b), and examined the effects of the mutations on the CP1-induced shift of the G–V relationship. The mutations of the KCNQ1 residues that interact with CP1 in docking simulations reduced the shift of the G–V relationship (Fig. 1c, d), supporting the interaction of these residues with CP1.
(§2) Complementary DNA (cDNA) encoding human KCNQ1 (UniProtKB/Swiss‐Prot under accession no. P51787), KCNQ2 (O43526), KCNQ3 (O43525), KCNE1 (P15382), Kir1.1 (P48048), hERG (Q12809), KV4.2 (Q63881), NaV1.5 (Q14524), NaV β1 (Q07699), CaV1.2 (Q13936), CaV β1a (Q02641), CaV α2/δ1 (P54289), and HCN4 (Q9Y3Q4) were subcloned into oocyte expression vectors, respectively. Site-directed mutations of the KCNQ1 channel were all produced by overlap extension polymerase chain reaction (PCR) with high-fidelity Pfu polymerase (Stratagene, CA). The presence of the desired mutation was verified by sequencing the PCR-amplified regions. All the primer sequences used in this study are available in Supplementary Table 1. The complementary RNA (cRNA) of all these channels and mutations was transcribed in vitro with the T3, T7, or SP6 polymerase mMessage mMachine kit (Invitrogen, Thermo Fisher Scientific, MO).
(§3) The use of Xenopus laevis to obtain oocytes was approved by the Washington University Animal Studies Committee (protocol #20190030). Oocytes were manually dispersed and digested with collagenase (0.5 mg/ml, Sigma-Aldrich, Saint Louis, MO) to remove the follicle cell layer. Stage V or VI oocytes were selected and injected with cRNAs (9.2 ng) of channel or mutations. Especially, to characterize IKs, a mix of cRNAs at a molar ratio 4:1 (KCNQ1:KCNE1) was injected. For KCNQ2/KCNQ3, the molar ratio was 1:1 (KCNQ2:KCNQ3). For sodium channels, a 3:1 molar ratio (β1:NaV1.5) and for calcium channels a weight ratio 1:1:1 (β1:α2/δ1:CaV1.2) was injected, respectively. Injected oocytes were incubated in ND96 solution containing (in mM) 96 NaCl, 2 KCl, 1.8 CaCl2, 1 MgCl2, and 5 HEPES, pH 7.6, supplemented with 2.5 mM Na pyruvate and 1% penicillin–streptomycin, at 18 °C for 3–7 days before recording.
(§4) The whole-oocyte ionic currents were recorded with a GeneClamp 500B amplifier (Axon Instruments, CA) or iTEV90 amplifier (HEKA, Germany) and then sampled at 1 kHz and low-pass-filtered at 2 kHz. The Patchmaster software (HEKA, Germany) was used to acquire data. The Kir1.1 current was recorded with a high K^+ bath solution containing (in mM) 96 KCl, 4 NaCl, 1 CaCl2, 2 MgCl2, and 10 HEPES, pH 7.3–7.4. The HCN4 current was recorded in ND66 solution containing (in mM) 66 NaCl, 32 KCl, 1.8 CaCl2, 1 MgCl2, and 5 HEPES, pH 7.6. All the other potassium channels were recorded in ND96 solution. The currents of CaV1.2 channel were recorded in 40 mM Ba^2+ bath solution containing (in mM) 40 Ba(OH)2, 50 TEA-OH, 2 KOH, and 5 HEPES, adjusted to pH 7.4 with methanesulfonic acid. CP1 (DISODIUM 5-BROMO-2-[9-CHLORO-3-(SULFONATOOXY) NAPHTHO [1,2-B] THIEN-2-YL]-1H-INDOL-3-YL SULFATE, Sigma-Aldrich, MO) and Chromanol 293B (Sigma-Aldrich, MO) were dissolved in bath solutions. All the chemicals were purchased from Sigma-Aldrich. To measure the I–V relations of the Kir1.1 channel, the test voltage was set from −100 to +60 mV for 1 s with 20-mV increments. The test pulses were stepped from a holding potential of 0 mV and then stepped back to 0 mV. The HCN4 currents were recorded by a test pulse between −30 and −140 mV in 10-mV step from a holding potential of −30 mV. […]

KCNQ1 K354A/K358A = KCNQ1 K354A/K358A (Homo sapiens, UniProt P51787, K354A/K358A)
From the text: as §1, §2, §3, §4

KCNQ1 R243A/R249A = KCNQ1 R243A/R249A (Homo sapiens, UniProt P51787, R243A/R249A); details: 10 µM CP1, individual oocytes
From the text: as §1, §2, §3, §4

KCNQ1 S253A = KCNQ1 S253A (Homo sapiens, UniProt P51787, S253A)
From the text: as §1, §2, §3, §4

- G/Gmax (KCNQ1 R249A; 10 µM CP1, 0 mV): 0.9092
- G/Gmax (KCNQ1 R249A; 10 µM CP1, 10 mV): 0.9509
- G/Gmax (KCNQ1 R249A; 10 µM CP1, 20 mV): 0.9864
- G/Gmax (KCNQ1 R249A; 10 µM CP1, 30 mV): 1.0000
- G/Gmax (KCNQ1 R249A; 10 µM CP1, -10 mV): 0.8439
- G/Gmax (KCNQ1 R249A; 10 µM CP1, -20 mV): 0.7664
- G/Gmax (KCNQ1 R249A; 10 µM CP1, -30 mV): 0.6715
- G/Gmax (KCNQ1 R249A; 10 µM CP1, -40 mV): 0.5716
- G/Gmax (KCNQ1 R249A; 10 µM CP1, -50 mV): 0.4548
- G/Gmax (KCNQ1 R249A; 10 µM CP1, -60 mV): 0.3517
- G/Gmax (KCNQ1 R249A; 10 µM CP1, -70 mV): 0.2667
- G/Gmax (KCNQ1 R249A; 10 µM CP1, -80 mV): 0.1987
- G/Gmax (KCNQ1 R249A; 10 µM CP1, -90 mV): 0.1385
- G/Gmax (KCNQ1 R249A; 10 µM CP1, -100 mV): 0.0990
- G/Gmax (KCNQ1 R249A; 10 µM CP1, -110 mV): 0.0539
- G/Gmax (KCNQ1 R249A; 10 µM CP1, -120 mV): 0.0000
- G/Gmax (KCNQ1 K354A/K358A; 10 µM CP1, 0 mV): 0.9071
- G/Gmax (KCNQ1 K354A/K358A; 10 µM CP1, 10 mV): 0.9519
- G/Gmax (KCNQ1 K354A/K358A; 10 µM CP1, 20 mV): 0.9897
- G/Gmax (KCNQ1 K354A/K358A; 10 µM CP1, 30 mV): 1.0000
- G/Gmax (KCNQ1 K354A/K358A; 10 µM CP1, -10 mV): 0.8497
- G/Gmax (KCNQ1 K354A/K358A; 10 µM CP1, -20 mV): 0.7541
- G/Gmax (KCNQ1 K354A/K358A; 10 µM CP1, -30 mV): 0.6165
- G/Gmax (KCNQ1 K354A/K358A; 10 µM CP1, -40 mV): 0.4576
- G/Gmax (KCNQ1 K354A/K358A; 10 µM CP1, -50 mV): 0.3124
- G/Gmax (KCNQ1 K354A/K358A; 10 µM CP1, -60 mV): 0.2094
- G/Gmax (KCNQ1 K354A/K358A; 10 µM CP1, -70 mV): 0.1390
- G/Gmax (KCNQ1 K354A/K358A; 10 µM CP1, -80 mV): 0.0950
- G/Gmax (KCNQ1 K354A/K358A; 10 µM CP1, -90 mV): 0.0670
- G/Gmax (KCNQ1 K354A/K358A; 10 µM CP1, -100 mV): 0.0415
- G/Gmax (KCNQ1 K354A/K358A; 10 µM CP1, -110 mV): 0.0111
- G/Gmax (KCNQ1 K354A/K358A; 10 µM CP1, -120 mV): 0.0033
- G/Gmax (KCNQ1 S253A; 10 µM CP1, -10 mV): 1.0000
- G/Gmax (KCNQ1 S253A; 10 µM CP1, -20 mV): 0.9987
- G/Gmax (KCNQ1 S253A; 10 µM CP1, -30 mV): 0.9693
- G/Gmax (KCNQ1 S253A; 10 µM CP1, -40 mV): 0.9339
- G/Gmax (KCNQ1 S253A; 10 µM CP1, -50 mV): 0.8910
- G/Gmax (KCNQ1 S253A; 10 µM CP1, -60 mV): 0.8327
- G/Gmax (KCNQ1 S253A; 10 µM CP1, -70 mV): 0.7485
- G/Gmax (KCNQ1 S253A; 10 µM CP1, -80 mV): 0.6141
- G/Gmax (KCNQ1 S253A; 10 µM CP1, -90 mV): 0.4531
- G/Gmax (KCNQ1 S253A; 10 µM CP1, -100 mV): 0.2784
- G/Gmax (KCNQ1 S253A; 10 µM CP1, -110 mV): 0.1217
- G/Gmax (KCNQ1 S253A; 10 µM CP1, -120 mV): 0.0000
Compound: O=S(=O)([O-])Oc1c(-c2sc3c(ccc4cccc(Cl)c43)c2OS(=O)(=O)[O-])[nH]c2ccc(Br)cc12.[Na+].[Na+] [CP1, DISODIUM 5-BROMO-2-[9-CHLORO-3-(SULFONATOOXY) NAPHTHO [1,2-B] THIEN-2-YL]-1H-INDOL-3-YL SULFATE]
- ∆V1/2 (KCNQ1 R249A; 10 µM CP1, individual oocytes): 32.4733 mV and 36.93 mV and 39.3292 mV and 47.5115 mV and 29.4037 mV
- ∆V1/2 (KCNQ1 K354A/K358A; 10 µM CP1, individual oocytes): 24.6605 mV and 42.476 mV and 38.8398 mV and 35.894 mV
- ∆V1/2 (KCNQ1 R243A/R249A): 58.531 mV and 59.5008 mV and 36.2737 mV and 44.7577 mV
- ∆V1/2 (KCNQ1 S253A; 10 µM CP1, individual oocytes): 62.813 mV and 60.7614 mV and 50.2508 mV and 66.8458 mV
